Assays:
[1] = dissolution of CBD from a gelatine capsule in 2% RM-β-CD dissolution media; format: physicochemical; settings: gelatine capsule with 1.0 mg pure CBD and 99 mg lactose, pH 6.6, n=6
[2] = 40% solution of HP-β-CD; cited from earlier work
[3] = oral administration, depending on the drug vehicle employed; cited from earlier work

In the case of `C=C(C)[C@@H]1CCC(C)=C[C@H]1c1c(O)cc(CCCCC)cc1O` [CBD, cannabidiol], the “time in which CBD is not fully dissolved” value [1] is reported as greater than 3 h.

For `CCCCCc1cc(O)c2c(c1)OC(C)(C)[C@@H]1CCC(C)=C[C@@H]21` [THC, Δ^9-tetrahydrocannabinol], the “THC solution concentration obtained” value [2] is listed as 1 mg/mL and the bioavailability [3] is listed as 6-20%.

Reference: patent publication US7592328B2, “Natural cyclodextrin complexes” (Pedipharm Oy, priority 2002, dated 2009)
